Results: patent US6075120A (priority 1995, dated 2000)
Square brackets hold non-standard residues; d marks the D form. Peptide text beside a SMILES is read from it. * marks the point of attachment. X1 = CN1CC[C@]23c4c5ccc(O)c4O[C@H]2C(NCCSC2CC(=O)N(CCCCCCN4C(=O)CC(*)C4=O)C2=O)CC[C@@]3(O)[C@H]1C5; Hyp = O=C(O)[C@@H]1C[C@@H](O)CN1

Legend:
BK2 -receptor = target: T1, BK2 -receptor (Rattus norvegicus, UniProt P25023); test: rat uterus assay of bradykinin antagonist (BKAn) activity; assay type: cell-based; details: bradykinin induced uterine contraction
T1 construct: BKAn activity (pA2) was assessed using the rat uterus preparation; from tissue; host or cells: rat uterus
T1 sequence (P25023 1-396): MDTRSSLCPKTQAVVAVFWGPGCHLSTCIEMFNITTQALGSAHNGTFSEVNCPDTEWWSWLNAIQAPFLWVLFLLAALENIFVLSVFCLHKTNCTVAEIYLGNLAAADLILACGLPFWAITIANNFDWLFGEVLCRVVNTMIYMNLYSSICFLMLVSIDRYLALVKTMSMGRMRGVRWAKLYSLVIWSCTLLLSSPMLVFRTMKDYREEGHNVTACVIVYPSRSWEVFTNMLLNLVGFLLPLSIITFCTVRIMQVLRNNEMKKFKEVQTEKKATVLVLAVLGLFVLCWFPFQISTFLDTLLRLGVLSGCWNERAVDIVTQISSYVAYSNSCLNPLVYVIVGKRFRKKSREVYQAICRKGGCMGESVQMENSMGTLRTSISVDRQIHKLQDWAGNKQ

[1] = target: T2, purified human neutrophil elastase (HNE) (Homo sapiens, UniProt P08246); test: neutrophil elastase inhibition with chromogenic substrate MOS-AAPV-pNA; assay type: biochemical; details: MOS-AAPV-pNA 0.5 mM, HNE 10-20 nM, pH 7.5, 25 C; read-out: Ki^ss (HNE)
T2 sequence (P08246 30-247 limits assumed): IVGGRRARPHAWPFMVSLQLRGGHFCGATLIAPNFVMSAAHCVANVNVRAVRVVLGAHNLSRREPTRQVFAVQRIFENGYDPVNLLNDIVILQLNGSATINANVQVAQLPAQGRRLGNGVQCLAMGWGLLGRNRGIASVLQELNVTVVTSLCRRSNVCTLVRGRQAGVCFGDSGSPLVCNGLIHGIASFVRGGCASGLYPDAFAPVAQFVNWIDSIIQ

[2] = tested on: mice injected in the hind limb foot pad with formalin; test: mouse formalin test (inflammatory and neurogenic pain, hind limb licking); assay type: in vivo; details: for narcotic / behavioral side effects observed in the formalin test: oxymorphone at highest doses 0.9 and 3.0 umoles/kg, CP-0494 over several hours
Procedure: In order to test the activity of these compounds in vivo, a model of inflammatory and neurogenic pain was used. This model measures the behavioral responses of mice injected in the hind limb foot pad with 50 ul of formalin. Control mice (open circles) show a characteristic bi-phasic response to the injected formalin wherein there is a short lasting initial response followed by a quiescent period which is then followed by a sustained period of hind limb licking. The licking behavior is interpreted to mean that the limb is irritated and painful. The greater the time spent licking, the more painful the stimulus.

cyclooxygenase = test: rat lung parenchymal strips challenged with arachidonic acid; assay type: cell-based; details: contraction in response to exogenously applied arachidonic acid
Source text: As mentioned previously, for the COI to work it may need to be dissociated from the BKAn so as to allow for its intracellular penetration. Therefore, in order to evaluate the functional activity of a BKAn/COI heterodimer, CP-0460 was exposed to rat lung parenchymal strips which were then challenged with arachidonic acid. This tissue is known to contain both non-specific esterase activity as well as to convert arachidonic acid to thromboxane (via a cyclooxygenase dependent pathway) which is then ultimately responsible for the smooth muscle contraction observed in this assay.

[3] = freshly obtained normal human plasma; details: 37° C.

| Compound | pA2 --Rat Uterus (BK2 -receptor) | narcotic / behavioral side effects observed in the formalin test [2] | other results |
| --- | --- | --- | --- |
| CC(C)(C)c1ccc(C(C)(C)C(=O)Oc2ccc(S(=O)(=O)CCCC(=O)O)cc2)cc1 [CE-1218, 4-(3'-carboxy-propylsulfonyl)phenyl 4-tert-butylphenylisobutyrate] | inactive | – | Ki [1]: 10.5 nM |
| CC(C)C[C@H](NC(=O)[C@@H](Cc1ccccc1)NC(=O)[C@H](CSC1CC(=O)N(CCCCCCN2C(=O)CC(SCCNC3CC[C@@]4(O)[C@H]5Cc6ccc(O)c7c6[C@@]4(CCN5C)[C@H]3O7)C2=O)C1=O)NC(=O)[C@H](Cc1ccccc1)NC(=O)CNC(=O)[C@@H]1C[C@@H](O)CN1C(=O)[C@@H]1CCCN1C(=O)[C@H](CCCNC(=N)N)NC(=O)[C@H](N)CCCNC(=N)N)C(=O)N[C@@H](CCCNC(=N)N)C(=O)O (some centres unmarked) [CP-0494] (H-[dR]RP[Hyp]GFC(X1)[dF]LR-OH) | – | no observable narcotic effects | – |
| COc1ccc2c(c1)c(CC(=O)O)c(C)n2C(=O)c1ccc(Cl)cc1 [indomethacin] | no effect | – | log dose ratio shift (cyclooxygenase): 0.998±0.425 |
| CN1CC[C@]23c4c5ccc(O)c4O[C@H]2C(=O)CC[C@@]3(O)[C@H]1C5 [oxymorphone] | – | significant behavioral obtundation resulting in catalepsy and frank respiratory depression | effect on licking behavior in both phases of the formalin test ([2]; 50 ul formalin in hind limb foot pad): reduces both phases of the licking behavior |
| DR-R-P-J-G-F-C-DF-L-R | – | – | cleaved bond [3]: Leu8-Arg9 |
